Columns and labels:
Assay in all cases: relative viability (nuclei count vs DMSO), 5 days (fraction); higher = more cells survive
201T = tested on: 201T
Procedure, shortened: (§1)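 For relative viability, nuclei counts in treated wells were divided by those in vehicle wells. Lung cancer cell lines had been pin-tool dosed in 1536-well plates the day after seeding and cultured for 5 days, then fixed and stained in one step (final 0.05% Triton X-100, 1% formaldehyde, 1 ug/ml Hoechst) and imaged at 4×. Doses were one drug alone or a fixed anchor-drug dose plus five library-drug doses (not always all listed) in √10 steps, and values are duplicate-plate medians.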

A-427 = tested on: A-427
Procedure, shortened: as §1

ABC-1 = tested on: ABC-1
Procedure, shortened: as §1

BEN = tested on: BEN
Procedure, shortened: as §1

CAL-12T = tested on: CAL-12T
Procedure, shortened: as §1

H3255 = tested on: H3255
Procedure, shortened: as §1

LC-2-ad = tested on: LC-2-ad
Procedure, shortened: as §1

LCLC-97TM1 = tested on: LCLC-97TM1
Procedure, shortened: as §1

NCI-H1650 = tested on: NCI-H1650
Procedure, shortened: as §1

NCI-H1651 = tested on: NCI-H1651
Procedure, shortened: as §1

NCI-H1915 = tested on: NCI-H1915
Procedure, shortened: as §1

NCI-H1944 = tested on: NCI-H1944
Procedure, shortened: as §1

NCI-H2023 = tested on: NCI-H2023
Procedure, shortened: as §1

NCI-H2087 = tested on: NCI-H2087
Procedure, shortened: as §1

NCI-H441 = tested on: NCI-H441
Procedure, shortened: as §1

NCI-H460 = tested on: NCI-H460
Procedure, shortened: as §1

NCI-H520 = tested on: NCI-H520
Procedure, shortened: as §1

NCI-H596 = tested on: NCI-H596
Procedure, shortened: as §1

NCI-H650 = tested on: NCI-H650
Procedure, shortened: as §1

NCI-H661 = tested on: NCI-H661
Procedure, shortened: as §1

NCI-H727 = tested on: NCI-H727
Procedure, shortened: as §1

PC-3 [JPC-3] = tested on: PC-3 [JPC-3]
Procedure, shortened: as §1

Oc1nc(-c2ccc(C(F)(F)F)cc2)nc2c1CSCC2 [XAV939] + Cc1cc(Nc2cc(N3CCN(C)CC3)nc(Sc3ccc(NC(=O)C4CC4)cc3)n2)n[nH]1 [Tozasertib] (partner 0.1 µM)
relative viability (201T; first compound 0.08 µM): 0.99
relative viability (201T; first compound 0.253 µM): 0.763
relative viability (201T; first compound 0.8 µM): 0.812
relative viability (201T; first compound 2.53 µM): 0.755
relative viability (A-427; first compound 0.08 µM): 0.238
relative viability (A-427; first compound 0.253 µM): 0.164
relative viability (A-427; first compound 0.8 µM): 0.19
relative viability (A-427; first compound 2.53 µM): 0.193
relative viability (ABC-1; first compound 0.08 µM): 0.126
relative viability (ABC-1; first compound 0.253 µM): 0.169
relative viability (ABC-1; first compound 0.8 µM): 0.166
relative viability (ABC-1; first compound 2.53 µM): 0.165
relative viability (BEN; first compound 0.08 µM): 0.579
relative viability (BEN; first compound 0.253 µM): 0.451
relative viability (BEN; first compound 0.8 µM): 0.542
relative viability (BEN; first compound 2.53 µM): 0.444
relative viability (CAL-12T; first compound 0.08 µM): 0.386
relative viability (CAL-12T; first compound 0.253 µM): 0.29
relative viability (CAL-12T; first compound 0.8 µM): 0.222
relative viability (CAL-12T; first compound 2.53 µM): 0.196
relative viability (H3255; first compound 0.08 µM): 0.699
relative viability (H3255; first compound 0.253 µM): 0.597
relative viability (H3255; first compound 0.8 µM): 0.597
relative viability (H3255; first compound 2.53 µM): 0.544
relative viability (LC-2-ad; first compound 0.08 µM): 0.481
relative viability (LC-2-ad; first compound 0.253 µM): 0.446
relative viability (LC-2-ad; first compound 0.8 µM): 0.488
relative viability (LC-2-ad; first compound 2.53 µM): 0.381
relative viability (LCLC-97TM1; first compound 0.08 µM): 0.344
relative viability (LCLC-97TM1; first compound 0.253 µM): 0.238
relative viability (LCLC-97TM1; first compound 0.8 µM): 0.186
relative viability (LCLC-97TM1; first compound 2.53 µM): 0.352
relative viability (NCI-H1650; first compound 0.08 µM): 0.471
relative viability (NCI-H1650; first compound 0.253 µM): 0.36
relative viability (NCI-H1650; first compound 0.8 µM): 0.406
relative viability (NCI-H1650; first compound 2.53 µM): 0.332
relative viability (NCI-H1651; first compound 0.08 µM): 0.726
relative viability (NCI-H1651; first compound 0.253 µM): 0.58
relative viability (NCI-H1651; first compound 0.8 µM): 0.763
relative viability (NCI-H1651; first compound 2.53 µM): 0.639
relative viability (NCI-H1915; first compound 0.08 µM): 0.5
relative viability (NCI-H1915; first compound 0.253 µM): 0.444
relative viability (NCI-H1915; first compound 0.8 µM): 0.416
relative viability (NCI-H1915; first compound 2.53 µM): 0.43
relative viability (NCI-H1944; first compound 0.08 µM): 0.261
relative viability (NCI-H1944; first compound 0.253 µM): 0.228
relative viability (NCI-H1944; first compound 0.8 µM): 0.235
relative viability (NCI-H1944; first compound 2.53 µM): 0.224
relative viability (NCI-H2023; first compound 0.08 µM): 0.391
relative viability (NCI-H2023; first compound 0.253 µM): 0.334
relative viability (NCI-H2023; first compound 0.8 µM): 0.278
relative viability (NCI-H2023; first compound 2.53 µM): 0.226
relative viability (NCI-H2087; first compound 0.08 µM): 0.234
relative viability (NCI-H2087; first compound 0.253 µM): 0.231
relative viability (NCI-H2087; first compound 0.8 µM): 0.256
relative viability (NCI-H2087; first compound 2.53 µM): 0.181
relative viability (NCI-H441; first compound 0.08 µM): 0.818
relative viability (NCI-H441; first compound 0.253 µM): 0.573
relative viability (NCI-H441; first compound 0.8 µM): 0.71
relative viability (NCI-H441; first compound 2.53 µM): 0.601
relative viability (NCI-H460; first compound 0.08 µM): 0.587
relative viability (NCI-H460; first compound 0.253 µM): 0.392
relative viability (NCI-H460; first compound 0.8 µM): 0.45
relative viability (NCI-H460; first compound 2.53 µM): 0.289
relative viability (NCI-H520; first compound 0.08 µM): 0.42
relative viability (NCI-H520; first compound 0.253 µM): 0.439
relative viability (NCI-H520; first compound 0.8 µM): 0.461
relative viability (NCI-H520; first compound 2.53 µM): 0.427
relative viability (NCI-H596; first compound 0.08 µM): 0.915
relative viability (NCI-H596; first compound 0.253 µM): 0.798
relative viability (NCI-H596; first compound 0.8 µM): 1.07
relative viability (NCI-H596; first compound 2.53 µM): 0.939
relative viability (NCI-H650; first compound 0.08 µM): 0.883
relative viability (NCI-H650; first compound 0.253 µM): 0.691
relative viability (NCI-H650; first compound 0.8 µM): 0.646
relative viability (NCI-H650; first compound 2.53 µM): 0.611
relative viability (NCI-H661; first compound 0.08 µM): 0.364
relative viability (NCI-H661; first compound 0.253 µM): 0.346
relative viability (NCI-H661; first compound 0.8 µM): 0.365
relative viability (NCI-H661; first compound 2.53 µM): 0.339
relative viability (NCI-H727; first compound 0.08 µM): 0.69
relative viability (NCI-H727; first compound 0.253 µM): 0.543
relative viability (NCI-H727; first compound 0.8 µM): 0.769
relative viability (NCI-H727; first compound 2.53 µM): 0.62
relative viability (PC-3 [JPC-3]; first compound 0.08 µM): 0.901
relative viability (PC-3 [JPC-3]; first compound 0.253 µM): 0.833
relative viability (PC-3 [JPC-3]; first compound 0.8 µM): 0.857
relative viability (PC-3 [JPC-3]; first compound 2.53 µM): 0.744

From the supplement of paper PMC10307832
